Measurements as given in patent US11472778B2, “Hepatitis C virus NS3/4A protease inhibitors” (priority 2017, dated 2022).
Where two headings read alike, the source gives them in different places.

Assays:
[1] = molecular target: T1, GT1a D168A NS3/4A protease (UniProt P27958, C1185S/D1194A, species not given); format: biochemical, Hepatitis C virus; conditions: read-out: Ki (nM) D168A; Table 6; P4/P4-P5 modified macrocycles
T1 construct: P4/P4-P5 modified macrocycles
In short: (§1)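 Enzyme (GT1a wild type or D168A mutant, 2 nM) was preincubated with inhibitor dilutions for 1 h at room temperature in pH 7.5 Tris buffer with glycerol, DTT, LDAO and 4% DMSO.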

[2] = molecular target: GT1a D168A NS3/4A protease; format: biochemical, Hepatitis C virus; conditions: for Ki (Fold Change) D168A: Table 6, with respect to GT1a wild-type
In short: as §1

[3] = molecular target: T2, wild-type GT1a NS3/4A protease (UniProt P27958, C1185S, species not given); format: biochemical, Hepatitis C virus; conditions: read-out: Ki (nM) GT1a WT; Table 6; P4/P4-P5 modified macrocycles
T2 construct: P4/P4-P5 modified macrocycles
In short: as §1

[4] = rcm bond; 15-membered ring; Zhan 1b; 1,2-DCE; 6.3 mM; 70.0 °C
[5] = molecular target: T3, GT1a D168A NS3/4A protease (UniProt P27958, C1185S/D1194A, species not given); format: biochemical, Hepatitis C virus; conditions: read-out: Ki (nM) GT1a D168A NS3/4A Protease
T3 construct: Ki (nM) GT1a D168A NS3/4A Protease
In short: as §1

[6] = molecular target: T4, wild-type GT1a NS3/4A protease (UniProt P27958, C1185S, species not given); format: biochemical, Hepatitis C virus; conditions: read-out: Ki (nM) GT1a WT NS3/4A Protease
T4 construct: Ki (nM) GT1a WT NS3/4A Protease
In short: as §1

GT3a NS3/4A protease = molecular target: T5, GT3a NS3/4A protease (Hepatitis C virus genotype 3a, UniProt Q81495); experiment: biochemical
T5 construct: drug-resistant variant D168A, and GT3a NS3/4A protease; made in house; host or cells: Escherichia coli BL21(DE3)
T5 sequence (Q81495 1033-1214): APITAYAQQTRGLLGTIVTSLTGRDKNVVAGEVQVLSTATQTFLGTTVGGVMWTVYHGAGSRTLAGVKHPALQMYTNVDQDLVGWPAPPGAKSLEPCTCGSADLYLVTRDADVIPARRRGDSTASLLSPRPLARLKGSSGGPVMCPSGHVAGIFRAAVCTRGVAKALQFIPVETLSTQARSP
In short: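 Protease at 2 nM pre-incubated 1 h at room temperature with increasing inhibitor concentrations in 50 mM Tris, 5% glycerol, 10 mM DTT, 0.6 mM LDAO, 4% DMSO. Three independent data sets per inhibitor and construct.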

[7] = tested on: wild-type HCV replicon in Huh7 cells; experiment: Cell-based drug susceptibility (replicon) assay, wild-type; conditions: Hepatitis C virus, read-out: Replicon EC50 (nM) WT
In short: (§2)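 Luciferase signal (RLU) at 96 h post-electroporation served as the replication read-out. Huh7 cells received replicon RNA of a Con1 1b backbone bearing H77 1a NS3, wild-type or site-directed mutant, and were dosed with increasing protease inhibitor concentrations.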

[8] = tested on: HCV replicon A156T variant in Huh7 cells; experiment: microbe, parasite or virus in culture; format: cell-based, Hepatitis C virus; conditions: for EC50: Hepatitis C virus
In short: as §2

[9] = tested on: HCV replicon D168A variant in Huh7 cells; experiment: microbe, parasite or virus in culture; format: cell-based, Hepatitis C virus; conditions: for EC50: Hepatitis C virus
In short: as §2

[10] = tested on: HCV replicon R155K variant in Huh7 cells; experiment: microbe, parasite or virus in culture; format: cell-based, Hepatitis C virus; conditions: for EC50: Hepatitis C virus
In short: as §2

[11] = tested on: HCV replicon D168V variant in Huh7 cells; experiment: microbe, parasite or virus in culture; format: cell-based, Hepatitis C virus; conditions: for EC50: Hepatitis C virus
In short: as §2

[12] = Table 4, relative to WT replicon

SMILES: COc1ccc2nc(C)c(O[C@@H]3C[C@H]4C(=O)N[C@]5(C(=O)NS(=O)(=O)C6(C)CC6)C[C@H]5/C=C\CCCCC[C@H](NC(=O)[C@@H](NC(C)=O)C(C)C)C(=O)N4C3)nc2c1 [Compound P4-P5-4]
- Ki [1]: 141 ± 18 nM
- Ki (Fold Change) D168A [2]: (13) fold
- Ki [3]: 11.1 ± 0.5 nM

SMILES: COC(=O)N[C@H](C(=O)N[C@H]1CCCCC/C=C\[C@@H]2C[C@@]2(C(=O)NS(=O)(=O)C2(C)CC2)NC(=O)[C@@H]2C[C@@H](Oc3nc4cc(OC)ccc4nc3C)CN2C1=O)C1CCCC1 [Compound P4-P5-5, Methyl ((S)-1-cyclopentyl-2-(((2R,6S,13aS,14aR,16aS,Z)-2-((7-methoxy-3-methylquinoxalin-2-yl)oxy)-14a-(((1-methylcyclopropyl)sulfonyl)carbamoyl)-5,16-dioxo-1,2,3,5,6,7,8,9,10,11,13a,14,14a,15,16,16a-hexadecahydrocyclopropa[e]pyrrolo[1,2-a][1,4]diazacyclopentadecin-6-yl)amino)-2-oxoethyl)carbamate]
- Ki [1]: 31.6 ± 2.1 nM
- Ki (Fold Change) D168A [2]: (9) fold
- Ki [3]: 3.54 ± 0.13 nM

SMILES: COC(=O)N[C@H](C(=O)N[C@H]1CCCCC/C=C\[C@@H]2C[C@@]2(C(=O)NS(=O)(=O)C2(C)CC2)NC(=O)[C@@H]2C[C@@H](Oc3nc4cc(OC)ccc4nc3C)CN2C1=O)C(C)(C)C [Compound P4-P5-1, Methyl ((S)-1-(((2R,6S,13aS,14aR,16aS,Z)-2-((7-methoxy-3-methylquinoxalin-2-yl)oxy)-14a-(((1-methylcyclopropyl)sulfonyl)carbamoyl)-5,16-dioxo-1,2,3,5,6,7,8,9,10,11,13a,14,14a,15,16,16a-hexadecahydrocyclopropa[e]pyrrolo[1,2-a][1,4]diazacyclopentadecin-6-yl)amino)-3,3-dimethyl-1-oxobutan-2-yl)carbamate]
- Ki [1]: 201 ± 15 nM
- Ki (Fold Change) D168A [2]: (8) fold
- Ki [3]: 29.5 nM

SMILES: COc1ccc2nc(C)c(O[C@@H]3C[C@H]4C(=O)N[C@]5(C(=O)NS(=O)(=O)C6(C)CC6)C[C@H]5/C=C\CCCCC[C@H](NC(=O)OC5(C)CCCC5)C(=O)N4C3)nc2c1 [Compound P4-3, 1-methylcyclopentyl ((2R,6S,13aS,14aR,16aS,Z)-2-((7-methoxy-3-methylquinoxalin-2-yl)oxy)-14a-(((1-methylcyclopropyl)sulfonyl)carbamoyl)-5,16-dioxo-1,2,3,5,6,7,8,9,10,11,13a,14,14a,15,16,16a-hexadecahydrocyclopropa[e]pyrrolo[1,2-a][1,4]diazacyclopentadecin-6-yl)carbamate]
- Ki [1]: 16 nM
- Ki (Fold Change) D168A [2]: (9) fold
- Ki [3]: 1.78 ± 0.3 nM

SMILES: COc1ccc2nc(C)c(O[C@@H]3C[C@H]4C(=O)N[C@]5(C(=O)NS(=O)(=O)C6(C)CC6)C[C@H]5/C=C\CCCCC[C@H](NC(=O)[C@@H](NC(C)=O)C(C)(C)C)C(=O)N4C3)nc2c1 [Compound P4-P5-2]
- Ki [1]: 215 ± 16 nM
- Ki (Fold Change) D168A [2]: (9) fold
- Ki [3]: 23.9 ± 1.7 nM

SMILES: CC[C@H](C)[C@H](NC(C)=O)C(=O)N[C@H]1CCCCC/C=C\[C@@H]2C[C@@]2(C(=O)NS(=O)(=O)C2(C)CC2)NC(=O)[C@@H]2C[C@@H](Oc3nc4cc(OC)ccc4nc3C)CN2C1=O [Compound P4-P5-6, (2R,6S,13aS,14aR,16aS,Z)-6-((2S,3S)-2-acetamido-3-methylpentanamido)-2-((7-methoxy-3-methylquinoxalin-2-yl)oxy)-N-((1-methylcyclopropyl)sulfonyl)-5,16-dioxo-1,2,3,6,7,8,9,10,11,13a,14,15,16,16a-tetradecahydrocyclopropa[e]pyrrolo[1,2-a][1,4]diazacyclopentadecine-14a(5H)-carboxamide]
- Ki [1]: 81 ± 11 nM
- Ki (Fold Change) D168A [2]: (11) fold
- Ki [3]: 7.1 ± 0.24 nM

SMILES: COC(=O)N[C@H](C(=O)N[C@H]1CCCCC/C=C\[C@@H]2C[C@@]2(C(=O)NS(=O)(=O)C2(C)CC2)NC(=O)[C@@H]2C[C@@H](Oc3nc4cc(OC)ccc4nc3C)CN2C1=O)C(C)C [Compound P4-P5-3, Methyl ((S)-1-(((2R,6S,13aS,14aR,16aS,Z)-2-((7-methoxy-3-methylquinoxalin-2-yl)oxy)-14a-(((1-methylcyclopropyl)sulfonyl)carbamoyl)-5,16-dioxo-1,2,3,5,6,7,8,9,10,11,13a,14,14a,15,16,16a-hexadecahydrocyclopropa[e]pyrrolo[1,2-a][1,4]diazacyclopentadecin-6-yl)amino)-3-methyl-1-oxobutan-2-yl)carbamate]
- Ki [1]: 102 ± 6.8 nM
- Ki (Fold Change) D168A [2]: (8) fold
- Ki [3]: 13 ± 0.8 nM

SMILES: COc1ccc2nc(C)c(O[C@@H]3C[C@H]4C(=O)N[C@]5(C(=O)NS(=O)(=O)C6(C)CC6)C[C@H]5/C=C\CCCCC[C@H](NC(=O)OC(C)(C)C)C(=O)N4C3)nc2c1 [Compound 19b, tert-Butyl ((2R,6S,13aS,14aR,16aS,Z)-2-((7-methoxy-3-methylquinoxalin-2-yl)oxy)-14a-(((1-methylcyclopropyl)sulfonyl)carbamoyl)-5,16-dioxo-1,2,3,5,6,7,8,9,10,11,13a,14,14a,15,16,16a-hexadecahydrocyclopropa[e]pyrrolo[1,2-a][1,4]diazacyclopentadecin-6-yl)carbamate]
- ring closure, isolated yield [4]: 70%
- Ki ([5]; Table 1): 52 nM
- Ki ([5]; Table 3): 52 ± 2.4 nM
- Ki [1]: 52 nM
- Ki (Fold change) GT1a D168A NS3/4A Protease ([2]; Table 3, Ki D168A relative to GT1a WT): (14) fold
- Ki (Fold Change) D168A [2]: (14) fold
- Ki ([6]; Table 1): 3.6 nM
- Ki ([6]; Table 3): 3.6 nM
- Ki [3]: 3.6 nM
- Ki (GT3a NS3/4A protease): 119 nM
- Ki (Fold change) GT3a NS3/4A Protease (GT3a NS3/4A protease; Table 3, Ki GT3a relative to GT1a WT): (33) fold
- Ki (GT3a NS3/4A protease; read-out: Ki (nM) GT3a NS3/4A Protease, Table 3): 119 ± 18 nM
- EC50 ([7]; Huh-7, 96 h, Table 2, Huh7 cells, luciferase 96 h): 0.3 nM
- EC50 ([7]; Huh-7, Table 4): 0.3 nM
- EC50 ([8]; Huh-7, 96 h, read-out: Replicon EC50 (nM) A156T, Table 2, Huh7 cells, luciferase 96 h): 1.57 nM
- EC50 ([8]; Huh-7, read-out: Replicon EC50 (nM) A156T, Table 4): 1.57 nM
- Replicon EC50 (Fold change) A156T [8, 12]: (5) fold
- EC50 ([9]; Huh-7, 96 h, read-out: Replicon EC50 (nM) D168A, Table 2, Huh7 cells, luciferase 96 h): 2.37 nM
- EC50 ([9]; Huh-7, read-out: Replicon EC50 (nM) D168A, Table 4): 2.37 nM
- Replicon EC50 (Fold change) D168A [9, 12]: (8) fold
- EC50 ([10]; Huh-7, 96 h, read-out: Replicon EC50 (nM) R155K, Table 2, Huh7 cells, luciferase 96 h): 0.8 nM
- EC50 ([10]; Huh-7, read-out: Replicon EC50 (nM) R155K, Table 4): 0.8 nM
- Replicon EC50 (Fold change) R155K [10, 12]: (3) fold
- EC50 ([11]; Huh-7, 96 h, read-out: Replicon EC50 (nM) D168V, Table 2, Huh7 cells, luciferase 96 h): 1.6 nM
- EC50 ([11]; Huh-7, read-out: Replicon EC50 (nM) D168V, Table 4): 1.6 nM
- Replicon EC50 (Fold change) D168V [11, 12]: (5) fold
